Test results as given in US7829723B2, “Polymorphic forms of (S)-1-cyanobutan-2-yl (S)-1-(3-3-(3-methoxy-4-(oxazol-5-yl)phenyl)uriedo)phenyl)ethylcarbamate” (Vertex Pharmaceuticals Incorporated, priority 2005, dated 2010).
In brackets after ≈: the same amount, converted by molar mass.

What was measured:
[1] = Solubility of Compound 1 at room temperature in various solvents and solvent mixtures; assay type: physicochemical
[2] = Solubility of Compound 1 at elevated temperatures in various solvents; assay type: physicochemical; conditions: organic solvent or mixture

solubility ([1]; aqueous with cosolvent or surfactant or cyclodextrin, solvent Acetone:H2O 20:80): < 8.9 mg/mL
solubility ([1]; organic solvent or mixture, solvent 2-Butanone (MEK)): 10.5 mg/mL (≈ 22 mM)
solubility ([1]; organic solvent or mixture, solvent Acetone): 11 mg/mL (≈ 23 mM)
solubility ([1]; organic solvent or mixture, solvent Acetonitrile): 1.6 mg/mL (≈ 3.35 mM)
solubility ([1]; organic solvent or mixture, solvent EtOH): 1.6 mg/mL (≈ 3.35 mM)
solubility ([1]; organic solvent or mixture, solvent THF): 35 mg/mL (≈ 73.3 mM)
solubility ([2]; solvent Acetone, 40° C.): 61 mg/mL (≈ 128 mM)
solubility ([2]; solvent Acetone, Boiling point (56° C.)): 67 mg/mL (≈ 140 mM)
solubility ([2]; solvent MeOH, 40° C.): 33 mg/mL (≈ 69.1 mM)
solubility ([2]; solvent MeOH, 50° C.): 36 mg/mL (≈ 75.4 mM)
solubility ([2]; solvent MeOH, Boiling point (65° C.)): 92 mg/mL (≈ 193 mM)
solubility ([2]; solvent THF, 40° C.): 75 mg/mL (≈ 157 mM)
solubility ([2]; solvent THF, Boiling point (65° C.)): 115 mg/mL (≈ 241 mM)
solubility ([2]; solvent Toluene, 50° C.): < 2.3 mg/mL
solubility ([2]; solvent t-Butyl methyl ether (MTBE), 45° C.): < 10.4 mg/mL
Compound: CC[C@@H](CC#N)OC(=O)N[C@@H](C)c1cccc(NC(=O)Nc2ccc(-c3cnco3)c(OC)c2)c1 [Compound 1, (S)-1-cyanobutan-2-yl (S)-1-(3-(3-(3-methoxy-4-(oxazol-5-yl)phenyl)ureido)phenyl)ethylcarbamate]
